# Source: patent US5399696A, “Isoquinolinyl compounds which are intermediates” (Eli Lilly and Company, priority 1993, dated 1995)
# How the values were obtained:
# [1] = target: NMDA receptor; experiment: Radioligand binding: displacement of [^3 H]CGS19755 from synaptosomal membranes of rat forebrain (NMDA receptor affinity); conditions: [^3 H]CGS19755 10 nM, mean ± standard error (n = 3), values marked ^c single experiment
# Description: (§1) The formula I compounds were tested for their ability to inhibit NMDA, AMPA, and kainic acid receptor binding to rat membranes in a radioligand binding assay using [^3 H]CGS19755, [^3 H]AMPA, and [^3 H]KA. For all radioligand binding assays, male Sprague-Dawley rats were used. […] Non-specific binding was determined using 10 μM L-glutamate. Samples were incubated in an ice-bath for 30 minutes, and bound ligand was separated from the free ligand by rapid filtration through WHATMAN GF/B glass fiber filters. Murphy et al, British J. Pharmacol., 95, 932-938 (1988). Kainate binding was performed using washed synaptosomal membranes from the rat forebrain as described by Simon et al. Simon et al, J. Neurochem., 26, 141-147 (1976). Tritiated kainate (5 nM) was added to 50 mM Tris-HCl buffer (pH 7.4 at 4° C.) containing 200-300 μg/ml of tissue protein. Samples were incubated for 30 minutes in an ice-bath, then rapidly filtered using a Brandel cell harvester and WHATMAN GF/C filters. Filters were washed twice with 3 ml of cold buffer. Non-specific binding was determined using 100 μM non-labeled kainate. The binding of [^3 H]AMPA (5 nM) was conducted with crude membranes of rat forebrain in the presence of 100 mM KSCN as described by Nielson et al. Nielson et al, Eur. J. Med. Chem. Chim. Ther., 21, 433-437 (1986). Non-specific binding was determined with 10 μM non-labeled AMPA. The concentration of the formula I compound that inhibited 50% binding (IC50, mean ±standard error, n=3) as calculated by linear regression of displacement data transformed to the Hill equation as described by Bennett. Bennett, Neurotransmitter Receptor Binding, 57-90 (1978).
# [2] = target: AMPA receptor; experiment: Radioligand binding: [^3 H]AMPA binding with crude membranes of rat forebrain
# Description: as §1
# [3] = target: kainic acid (KA) receptor; experiment: Radioligand binding: tritiated kainate binding with washed synaptosomal membranes from the rat forebrain; conditions: tritiated kainate 5 nM, pH 7.4, mean ± standard error (n = 3), values marked ^c single experiment
# Description: as §1
# [4] = system: NMDA receptor; experiment: Antagonism of NMDA-induced depolarization of rat cortical wedges; assay type: cell-based; conditions: NMDA 40 μM, mean ± standard error (n = 3), read-out: IC50 NMDA, antagonism of cortical wedge depolarization
# Description: (§2) The depolarization of rat cortical wedges was used to test the selectivity and potency of the formula I compounds as AMPA antagonists using a technique similar to that described by Harrison and Simmonds. Harrison and Simmonds, Bri. J. Pharmacol., 84, 381-391 (1984). Generally, 4-ml aliquots of NMDA (40 μM), AMPA (40 μM), and kainate (10 μM) were superfused (2 ml/min.) on the grey matter at intervals of 15-20 minutes until stable responses were attained. The tissue was then exposed for 15 minutes to various concentrations of the formula I compounds before retesting the agonists. The IC50 values were calculated from linear regression of log dose-response curves, each point the mean of at least three observations on separate slices from more than one animal.
# [5] = system: AMPA receptor; experiment: Antagonism of AMPA-induced depolarization of rat cortical wedges; assay type: cell-based
# Description: as §2
# [6] = system: kainic acid (KA) receptor; experiment: Antagonism of kainate-induced depolarization of rat cortical wedges; assay type: cell-based; conditions: kainate 10 μM, mean ± standard error (n = 3)
# Description: as §2
# [7] = system: AMPA receptor; conditions: cited: LaPeillet et al.; cited from earlier work
# [8] = system: AMPA receptor; conditions: cited: Sheardown et al.; Buchan et al.; LePeillet et al.; cited from earlier work
# [9] = Table I, racemic, [^3 H]AMPA 5 nM, 100 mM KSCN, mean ± standard error (n = 3), values marked ^c single experiment, read-out: IC50 AMPA, receptor binding
# [10] = Table III; racemic; AMPA 40 μM; mean ± standard error (n = 3); read-out: IC50 AMPA, antagonism of cortical wedge depolarization
# [11] = text summary of Table I, racemic, read-out: selectively displaced ^3 H-AMPA with IC50 values
# [12] = Table III; cortical wedge; racemic
# [13] = Table II, enantiopure, [^3 H]AMPA 5 nM, 100 mM KSCN, mean ± standard error (n = 3), values marked ^c single experiment, read-out: IC50 AMPA, receptor binding
# [14] = Table IV; enantiopure; AMPA 40 μM; mean ± standard error (n = 3); read-out: IC50 AMPA, antagonism of cortical wedge depolarization
Structure (SMILES),"IC50 ([1]; Table I, racemic) [µM]","IC50 [2, 9] [µM]","IC50 KA, receptor binding ([3]; Table I, racemic) [µM]","IC50 ([4]; Table III, racemic) [µM]","IC50 [5, 10] [µM]","IC50 KA, antagonism of cortical wedge depolarization ([6]; Table III, racemic)","IC50 ([1]; Table II, enantiopure) [µM]","IC50 [2, 13] [µM]","IC50 KA, receptor binding ([3]; Table II, enantiopure) [µM]","IC50 ([4]; Table IV, enantiopure) [µM]","IC50 KA, antagonism of cortical wedge depolarization ([6]; Table IV, enantiopure) [µM]",other results
"O=C(O)[C@@H]1C[C@H]2C[C@H](CCS(=O)(=O)O)CC[C@H]2CN1 (racemic) [Compound 12, (3SR,4aRS,6RS,8aRS)-6-(2-Sulfoethyl)decahydroisoquinoline-3-carboxylic Acid]",61.8,11.1,> 100,> 100,31.4 ± 1.7,100 µM,,,,,,
"O=C(O)[C@@H]1C[C@H]2C[C@@H](CCc3cc(O)no3)CC[C@H]2CN1 (racemic) [Compound 13, (3SR,4aRS,6RS,8aRS)-6-[2-(3-Hydroxyisoxazole-5-yl)ethyl]decahydroisoquinoline-3-carboxylic Acid]",> 100,13.8 ± 1.24,> 100,> 100,16.5 ± 2.7,> 100 µM,,,,,,"IC50 [2, 11]: < 15 µM; selective AMPA receptor antagonism (in words) [5, 12]: selective AMPA receptor antagonists"
"O=C(O)[C@@H]1C[C@H]2C[C@@H](CSc3ncn[nH]3)CC[C@H]2CN1 (racemic) [Compound 14, (3SR,4aRS,6SR,8aRS)-6-[2-(1(2-4)H-1,2,4-Triazol-5-yl)-2-thiaethyl]decahydroisoquinoline-3-carboxylic Acid]",> 10,> 10,> 10,> 100,68.8 ± 12.3,> 100 µM,,,,,,
"O=C(O)[C@@H]1C[C@H]2C[C@@H](CS(=O)(=O)c3ncn[nH]3)CC[C@H]2CN1 (racemic) [Compound 15, (3SR,4aRS,6SR,8aRS)-6-[(1(2-4)H-1,2,4-Triazole-5-yl)sulfonylmethyl]decahydroisoquinoline-3-carboxylic Acid]",> 100,1.67 ± 0.14,> 100,> 100,2.16 ± 0.79,Ca. 10 μM,,,,,,"IC50 [2, 11]: < 15 µM; selective AMPA receptor antagonism (in words) [5, 12]: selective AMPA receptor antagonists"
"O=C(O)[C@@H]1C[C@H]2C[C@@H](C=Cc3nsnc3O)CC[C@H]2CN1 (racemic) [Compound 20, (3SR,4aRS,6SR,8aRS)-6-[2-(3-Hydroxy-1,2,5-thiadiazole-4-yl)ethenyl]decahydroisoquinoline-3-carboxylic Acid]",> 100,83.4,> 100,> 100,100,> 100 µM,,,,,,
"O=C(O)[C@@H]1C[C@H]2C[C@@H](C(Cc3nn[nH]n3)c3ccccc3)CC[C@H]2CN1 (stereo partly drawn) [Compound 19, (3SR,4aRS,6RS,8aRS)-6-[2-(1(2)H-Tetrazole-5-yl)-1-phenylethyl]decahydroisoquinoline-3-carboxylic Acid]",13.8,6.58,> 100,100,9 ± 2.8,23.6 ± 5.6 µM,,,,,,"IC50 [2, 11]: < 15 µM; selective AMPA receptor antagonism (in words) [5, 12]: selective AMPA receptor antagonists"
"O=C(O)[C@@H]1C[C@H]2C[C@@H](CCc3nn[nH]n3)CC[C@H]2CN1 [Compound 21, (3S,4aR,6R,8aR)-(-)-6-[2-(1(2)H-Tetrazole-5-yl)ethyl]decahydroisoquinoline-3-carboxylic Acid]",,,,,,,12.1 ± 2,1.35 ± 0.13,28.1 ± 1.7,< 100,< 100,"IC50 ([5]; read-out: IC50 AMPA, antagonism of cortical wedge depolarization; Table IV; enantiopure; AMPA 40 μM; mean ± standard error (n = 3)): 1.78 ± 0.23 µM"
O=C(O)[C@@H]1C[C@H]2C[C@@H](CSc3nn[nH]n3)CC[C@H]2CN1 [Compound 23],,,,,,,16.3,0.58 ± 0.03,12.5,22.9 ± 3.8,> 31.6,"IC50 [5, 14]: 1.35 ± 0.35 µM"
O=C(O)[C@H]1C[C@@H]2C[C@H](CSc3nn[nH]n3)CC[C@@H]2CN1 [Compound 24],,,,,,,> 10,21.9,> 100,> 100,> 31.6,"IC50 [5, 14]: 19.8 ± 2.2 µM"
"O=C(O)[C@@H]1C[C@H]2C[C@H](CSc3nn[nH]n3)CC[C@H]2CN1 [Compound 25, (3S,4aR,6R,8aR)-6[2(1(2)H-Tetrazole-5-yl)-2-thiaethyl]decahydroisoquinoline-3-carboxylic Acid]",,,,,,,> 100,17.8,27.9,> 100,29.1 ± 4.3,"IC50 [5, 14]: 9 ± 0.8 µM"
CC1=NN=C(c2ccc(N)cc2)c2cc3c(cc2C1)OCO3 [GKYI 52466],,,,,,,,,,,,neuroprotection in rat global ischemia (in words) [7]: effective neuroprotective agent in rat global ischemia models
"NS(=O)(=O)c1cccc2c1c([N+](=O)[O-])cc1nc(O)c(O)nc12 [NBQX, 2,3-dihydroxy-6-nitro-7-sulfamoylbenzo[f]quinoxaline]",,,,,,,,,,,,prevention of global and focal ischemic damage (in words) [8]: effective in preventing global and focal ischemic damage
